Results reported in patent US20240043404A1 (AbbVie Inc., priority 2009, published 2024).
Read-outs that look alike come from different tables or passages of the source.

System: RS4;11 cells
Experiment: RS4;11 cell viability assay (CellTiter Glo);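 further: acute lymphoblastic leukemia line RS4,11, EC50 derived from percentage of viable cells after treatment relative to untreated controls, cell killing taken as a measure of Bcl-2 inhibition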
Assay type: cell-based, human
Details: Homo sapiens, read-out: RS4
[1] = RS4-11, 48 h, 50,000 cells per well, 10% human serum, 48 hours, 11 EC50 Values

Method: The acute lymphoblastic leukemia (ALL) cell line RS4;11 was used as the primary human cell line to assess the cellular activity of Bcl-2 selective agents in vitro and their efficacy in vivo.
Cell cytotoxicity EC50 values were assessed using CellTiter Glo (Promega) according to the manufacturer's recommendations. The EC50 values were determined as a percentage of viable cells following treatment compared to the untreated control cells.

Structure (SMILES)	EC50 [1]	EC50 (RS4-11, Table 5, direct comparison Z=N with corresponding analogs Z=C, 11 EC50)
CCN1CCOCC1COc1ncc(S(=O)(=O)NC(=O)c2ccc(N3CCN(CC4=C(c5ccc(Cl)cc5)CC(C)(C)CC4)CC3)cc2Oc2cnc3[nH]ccc3c2)cc1Br (stereo not shown) [Example 102, N-({5-bromo-6-[(4-ethylmorpholin-3-yl)methoxy]pyridin-3-yl}sulfonyl)-4-(4-{[2-(4-chlorophenyl)-4,4-dimethylcyclohex-1-en-1-yl]methyl}piperazin-1-yl)-2-(1H-pyrrolo[2,3-b]pyridin-5-yloxy)benzamide]	622 nM	
CC1(C)CCC(CN2CCN(c3ccc(C(=O)NS(=O)(=O)c4ccc(Cl)c([N+](=O)[O-])c4)c(Oc4cnc5[nH]ccc5c4)c3)CC2)=C(c2ccc(Cl)cc2)C1 [Example 82, N-[(4-chloro-3-nitrophenyl)sulfonyl]-4-(4-{[2-(4-chlorophenyl)-4,4-dimethylcyclohex-1-en-1-yl]methyl}piperazin-1-yl)-2-(1H-pyrrolo[2,3-b]pyridin-5-yloxy)benzamide]	684 nM	
CC1(C)CCC(CN2CCN(c3ccc(C(=O)NS(=O)(=O)c4ccc(NC5CCN(CC(F)(F)F)CC5)c([N+](=O)[O-])c4)c(Oc4cnc5[nH]ccc5c4)c3)CC2)=C(c2ccc(Cl)cc2)C1 [Example 83, 4-(4-{[2-(4-chlorophenyl)-4,4-dimethylcyclohex-1-en-1-yl]methyl}piperazin-1-yl)-N-[(3-nitro-4-{[1-(2,2,2-trifluoroethyl)piperidin-4-yl]amino}phenyl)sulfonyl]-2-(1H-pyrrolo[2,3-b]pyridin-5-yloxy)benzamide]	197 nM	
CC1(C)CCC(CC2CCN(c3ccc(C(=O)NS(=O)(=O)c4ccc(NCC5CCOCC5)c([N+](=O)[O-])c4)c(Oc4cnc5[nH]ccc5c4)c3)CC2)=C(c2ccc(Cl)cc2)C1 [Example 315, 4-(4-{[2-(4-chlorophenyl)-4,4-dimethylcyclohex-1-en-1-yl]methyl}piperidin-1-yl)-N-({3-nitro-4-[(tetrahydro-2H-pyran-4-ylmethyl)amino]phenyl}sulfonyl)-2-(1H-pyrrolo[2,3-b]pyridin-5-yloxy)benzamide]	210 nM	
CC1(C)CCC(CN2CCN(c3ccc(C(=O)NS(=O)(=O)c4ccc(OCC5COCCN5C(=O)OC(C)(C)C)c([N+](=O)[O-])c4)c(Oc4cnc5[nH]ccc5c4)c3)CC2)=C(c2ccc(Cl)cc2)C1 (stereo not shown) [Example 77, tert-butyl 3-{[4-({[4-(4-{[2-(4-chlorophenyl)-4,4-dimethylcyclohex-1-en-1-yl]methyl}piperazin-1-yl)-2-(1H-pyrrolo[2,3-b]pyridin-5-yloxy)benzoyl]amino}sulfonyl)-2-nitrophenoxy]methyl}morpholine-4-carboxylate]	762 nM	
CC1CN(c2ccc(C(=O)NS(=O)(=O)c3ccc(NCC4CCOCC4)c([N+](=O)[O-])c3)c(Oc3cnc4[nH]ccc4c3)c2)CCN1CC1=C(c2ccc(Cl)cc2)CC(C)(C)CC1 (stereo not shown) [Example 290, 4-(4-{[2-(4-chlorophenyl)-4,4-dimethylcyclohex-1-en-1-yl]methyl}-3-methylpiperazin-1-yl)-N-({3-nitro-4-[(tetrahydro-2H-pyran-4-ylmethyl)amino]phenyl}sulfonyl)-2-(1H-pyrrolo[2,3-b]pyridin-5-yloxy)benzamide]	107 nM	
CC1(C)CCC(CN2CCN(c3ccc(C(=O)NS(=O)(=O)c4ccc(NCC5CCOCC5)c(S(=O)(=O)C(F)(F)F)c4)c(Oc4cnc5[nH]ccc5c4)c3)CC2)=C(c2ccc(Cl)cc2)C1 [Example 17, 4-(4-{[2-(4-chlorophenyl)-4,4-dimethylcyclohex-1-en-1-yl]methyl}piperazin-1-yl)-2-(1H-pyrrolo[2,3-b]pyridin-5-yloxy)-N-({4-[(tetrahydro-2H-pyran-4-ylmethyl)amino]-3-[(trifluoromethyl)sulfonyl]phenyl}sulfonyl)benzamide]	475 nM	475 nM
CC1(C)CCC(CN2CCN(c3ccc(C(=O)NS(=O)(=O)c4cnc(OCC5CCOCC5)c(C#N)c4)c(Oc4cnc5[nH]ccc5c4)c3)CC2)=C(c2ccc(Cl)cc2)C1 [Example 36, 4-(4-{[2-(4-chlorophenyl)-4,4-dimethylcyclohex-1-en-1-yl]methyl}piperazin-1-yl)-N-{[5-cyano-6-(tetrahydro-2H-pyran-4-ylmethoxy)pyridin-3-yl]sulfonyl}-2-(1H-pyrrolo[2,3-b]pyridin-5-yloxy)benzamide]	181 nM	

Stronger by EC50 [1], values ahead:

EC50 [1]	EC50 (RS4-11, Table 5, direct comparison Z=N with corresponding analogs Z=C, 11 EC50)	Structure (SMILES)
69.4 nM		O=C(NS(=O)(=O)c1cnc(OCC2CCOCC2)c(Cl)c1)c1ccc(N2CCN(CC3=C(c4ccc(Cl)cc4)CCC4(CCN(C(CF)CF)CC4)C3)CC2)cc1Oc1cnc2[nH]ccc2c1 [Example 267, 4-(4-{[9-(4-chlorophenyl)-3-(1,3-difluoropropan-2-yl)-3-azaspiro[5.5]undec-8-en-8-yl]methyl}piperazin-1-yl)-N-{[5-chloro-6-(tetrahydro-2H-pyran-4-ylmethoxy)pyridin-3-yl]sulfonyl}-2-(1H-pyrrolo[2,3-b]pyridin-5-yloxy)benzamide]
7.36 nM		CC1(C)CCC(CN2CCN(c3ccc(C(=O)NS(=O)(=O)c4ccc(NC5CCN(C(C)(C)C)CC5)c([N+](=O)[O-])c4)c(Oc4cnc5[nH]ccc5c4)c3)CC2)=C(c2ccc(Cl)cc2)C1 [Example 227, N-({4-[(1-tert-butylpiperidin-4-yl)amino]-3-nitrophenyl}sulfonyl)-4-(4-{[2-(4-chlorophenyl)-4,4-dimethylcyclohex-1-en-1-yl]methyl}piperazin-1-yl)-2-(1H-pyrrolo[2,3-b]pyridin-5-yloxy)benzamide]
31.9 nM		CC1(C)CCC(CN2CCN(c3ccc(C(=O)NS(=O)(=O)c4ccc(N[C@H]5CCN(C6CCOC(C)(C)C6)C5)c([N+](=O)[O-])c4)c(Oc4cnc5[nH]ccc5c4)c3)CC2)=C(c2ccc(Cl)cc2)C1 (stereo partly drawn) [Example 133, 4-(4-{[2-(4-chlorophenyl)-4,4-dimethylcyclohex-1-en-1-yl]methyl}piperazin-1-yl)-N-[(4-{[(3S)-1-(2,2-dimethyltetrahydro-2H-pyran-4-yl)pyrrolidin-3-yl]amino}-3-nitrophenyl)sulfonyl]-2-(1H-pyrrolo[2,3-b]pyridin-5-yloxy)benzamide]
7.48 nM		CO[C@H]1CC[C@H](CNc2ccc(S(=O)(=O)NC(=O)c3ccc(N4CCN(CC5=C(c6ccc(Cl)cc6)CC(C)(C)CC5)CC4)cc3Oc3cnc4[nH]ccc4c3)cc2[N+](=O)[O-])CC1 [Example 34, Trans-4-(4-{[2-(4-chlorophenyl)-4,4-dimethylcyclohex-1-en-1-yl]methyl}piperazin-1-yl)-N-[(4-{[(4-methoxycyclohexyl)methyl]amino}-3-nitrophenyl)sulfonyl]-2-(1H-pyrrolo[2,3-b]pyridin-5-yloxy)benzamide]
13.5 nM		CC1(C)CCC(CN2CCN(c3ccc(C(=O)NS(=O)(=O)c4ccc(N[C@@H]5CCN(S(C)(=O)=O)C5)c([N+](=O)[O-])c4)c(Oc4cnc5[nH]ccc5c4)c3)CC2)=C(c2ccc(Cl)cc2)C1 [Example 149, 4-(4-{[2-(4-chlorophenyl)-4,4-dimethylcyclohex-1-en-1-yl]methyl}piperazin-1-yl)-N-[(4-{[(3R)-1-(methylsulfonyl)pyrrolidin-3-yl]amino}-3-nitrophenyl)sulfonyl]-2-(1H-pyrrolo[2,3-b]pyridin-5-yloxy)benzamide]
27.5 nM		CC1(C)CCC(CN2CCN(c3ccc(C(=O)NS(=O)(=O)c4ccc(NCc5ccc(O)cc5)c([N+](=O)[O-])c4)c(Oc4cnc5[nH]ccc5c4)c3)CC2)=C(c2ccc(Cl)cc2)C1 [Example 185, 4-(4-{[2-(4-chlorophenyl)-4,4-dimethylcyclohex-1-en-1-yl]methyl}piperazin-1-yl)-N-({4-[(4-hydroxybenzyl)amino]-3-nitrophenyl}sulfonyl)-2-(1H-pyrrolo[2,3-b]pyridin-5-yloxy)benzamide]
18.2 nM		CC1(C)CCC(CN2CCN(c3ccc(C(=O)NS(=O)(=O)c4ccc(NC5CN(C6CCOC6)C5)c([N+](=O)[O-])c4)c(Oc4cnc5[nH]ccc5c4)c3)CC2)=C(c2ccc(Cl)cc2)C1 (stereo not shown) [Example 117, 4-(4-{[2-(4-chlorophenyl)-4,4-dimethylcyclohex-1-en-1-yl]methyl}piperazin-1-yl)-N-({3-nitro-4-[(1-tetrahydrofuran-3-ylazetidin-3-yl)amino]phenyl}sulfonyl)-2-(1H-pyrrolo[2,3-b]pyridin-5-yloxy)benzamide]
8.05 nM		CC1(C)CCC(CN2CCN(c3ccc(C(=O)NS(=O)(=O)c4ccc(NC[C@@H]5CC[C@@H](O)C5)c([N+](=O)[O-])c4)c(Oc4cnc5[nH]ccc5c4)c3)CC2)=C(c2ccc(Cl)cc2)C1 [Example 156, 4-(4-{[2-(4-chlorophenyl)-4,4-dimethylcyclohex-1-en-1-yl]methyl}piperazin-1-yl)-N-{[4-({[(1R,3R)-3-hydroxycyclopentyl]methyl}amino)-3-nitrophenyl]sulfonyl}-2-(1H-pyrrolo[2,3-b]pyridin-5-yloxy)benzamide]
0.93 nM		CC1(C)CCC(CN2CCN(c3ccc(C(=O)NS(=O)(=O)c4ccc(OCC5(F)CCN(C6COC6)CC5)c([N+](=O)[O-])c4)c(Oc4cnc5[nH]ccc5c4)c3)CC2)=C(c2ccc(Cl)cc2)C1 [Example 167, 4-(4-{[2-(4-chlorophenyl)-4,4-dimethylcyclohex-1-en-1-yl]methyl}piperazin-1-yl)-N-({4-[(4-fluoro-1-oxetan-3-ylpiperidin-4-yl)methoxy]-3-nitrophenyl}sulfonyl)-2-(1H-pyrrolo[2,3-b]pyridin-5-yloxy)benzamide]
52.7 nM		CC1(C)CCC(CN2CCN(c3ccc(C(=O)NS(=O)(=O)c4ccc(NCC5COCCN5C5CCOC5)c([N+](=O)[O-])c4)c(Oc4cnc5[nH]ccc5c4)c3)CC2)=C(c2ccc(Cl)cc2)C1 (stereo not shown) [Example 171, 4-(4-{[2-(4-chlorophenyl)-4,4-dimethylcyclohex-1-en-1-yl]methyl}piperazin-1-yl)-N-[(3-nitro-4-{[(4-tetrahydrofuran-3-ylmorpholin-3-yl)methyl]amino}phenyl)sulfonyl]-2-(1H-pyrrolo[2,3-b]pyridin-5-yloxy)benzamide]
